{
  "source": "patent US20240285554A1",
  "about": "“POLYVINYL ALCOHOL COMPOSITIONS AND METHODS OF MAKING AND USING THEM” (Emanate Biomedical, Inc., priority 2023, published 2024)",
  "key": {"oral pathogenic bacteria": {"test_system": "oral pathogenic bacteria", "settings": "cited from earlier work"}, "C. tropicalis ATCC 750 [1]": {"test_system": "C. tropicalis ATCC 750", "experiment": "Antimicrobial efficacy testing (modified AATCC 100 test)", "type": "cell-based, Candida tropicalis", "settings": "for Average CFU/carrier / Log10 Reduction Compared to Control / Percent Reduction Compared to Control: C. tropicalis ATCC 750, contact time 30 min, study NG17964; for efficacy: tested against Candida albicans and Candida tropicalis"}, "S. aureus ATCC 6538": {"test_system": "S. aureus ATCC 6538", "experiment": "Antimicrobial efficacy testing (modified AATCC 100 test)", "type": "cell-based, Staphylococcus aureus", "settings": "for Log10 Reduction Compared to Control / Percent Reduction Compared to Control / Average CFU/carrier: S. aureus ATCC 6538, study NG17598-A1; for Average CFU/carrier: limit of detection", "source_text": "(§1) The CHG concentration of 0.05% w/w was the lowest dose showing strong efficacy against both bacteria and fungus and was therefore selected as the suitable preservative concentration."}, "P. aeruginosa ATCC 9027": {"test_system": "P. aeruginosa ATCC 9027", "experiment": "Antimicrobial efficacy testing (modified AATCC 100 test)", "type": "cell-based, Pseudomonas aeruginosa", "settings": "for Log10 Reduction Compared to Control / Percent Reduction Compared to Control / Average CFU/carrier: P. aeruginosa ATCC 9027, study NG17598-A1; for Average CFU/carrier: limit of detection", "source_text": "as §1"}, "C. tropicalis ATCC 750 [2]": {"test_system": "C. tropicalis ATCC 750", "experiment": "Antimicrobial efficacy testing (modified AATCC 100 test)", "type": "cell-based, Candida tropicalis", "source_text": "as §1"}, "bacteria and fungus": {"test_system": "bacteria and fungus", "experiment": "Antimicrobial efficacy, choice of preservative concentration", "type": "cell-based", "settings": "selected as the suitable preservative concentration", "source_text": "as §1"}, "[3]": {"test_system": "gram positive bacteria and gram negative bacteria", "experiment": "Zone of Inhibition (ZOI) testing", "type": "cell-based", "settings": "composition with 0.005%, 0.025%, 0.05%, 0.1%, and 0.15% w/w of CHG", "source_text": "as §1"}, "C. albicans ATCC 10231": {"test_system": "C. albicans ATCC 10231", "experiment": "Antimicrobial efficacy testing (modified AATCC 100 test)", "type": "cell-based, Candida albicans", "settings": "contact time 30 min, study NG17964", "source_text": "as §1"}, "[4]": {"settings": "CHG Conc 0.005 % w/w, contact time 30 min"}, "[5]": {"settings": "CHG Conc 0.1 % w/w, contact time 60 min"}, "[6]": {"settings": "CHG Conc 0.1 % w/w, contact time 24 hrs"}, "[7]": {"settings": "C. tropicalis ATCC 750, CHG Conc 0.05 % w/w, contact time 30 min, study NG17964"}},
  "data": [
    {"smiles": "[H]/N=C(\\N/C(=N/[H])NCCCCCCNC(=N)NC(=N)Nc1ccc(Cl)cc1)Nc1ccc(Cl)cc1", "note": "[Chlorhexidine, chlorhexidine]", "values": [
      {"measurement": "MIC", "setting": "oral pathogenic bacteria; against oral pathogenic bacteria", "value": 0.0125, "unit": "% w/v"},
      {"measurement": "MBC", "setting": "oral pathogenic bacteria; at 10 minutes", "value": 0.5, "unit": "% w/v"}
    ]},
    {"smiles": "N=C(NCCCCCCNC(=N)NC(=N)Nc1ccc(Cl)cc1)NC(=N)Nc1ccc(Cl)cc1.O=C(O)[C@H](O)[C@@H](O)[C@H](O)[C@H](O)CO.O=C(O)[C@H](O)[C@@H](O)[C@H](O)[C@H](O)CO", "note": "[CHG]", "values": [
      {"measurement": "Average CFU/carrier", "setting": "C. tropicalis ATCC 750 [1]; CHG Conc 0.005 % w/w", "value": "2.70E+04", "unit": "CFU/carrier"},
      {"measurement": "Log10 Reduction Compared to Control", "setting": "C. tropicalis ATCC 750 [1]; CHG Conc 0.005 % w/w", "value": 0.73},
      {"measurement": "Percent Reduction Compared to Control", "setting": "C. tropicalis ATCC 750 [1]; CHG Conc 0.005 % w/w", "value": 81.38, "unit": "%"},
      {"measurement": "Log10 Reduction Compared to Control", "setting": "C. tropicalis ATCC 750 [1]; CHG Conc 0.1 % w/w", "value": ">4.46"},
      {"measurement": "Percent Reduction Compared to Control", "setting": "C. tropicalis ATCC 750 [1]; CHG Conc 0.1 % w/w", "value": ">99.997", "unit": "%"},
      {"measurement": "Average CFU/carrier", "setting": "C. tropicalis ATCC 750 [1]; CHG Conc 0.1 % w/w, limit of detection", "value": "<5.00E+00^1 CFU/carrier"},
      {"measurement": "efficacy", "setting": "C. tropicalis ATCC 750 [1]; CHG 0.005% w/w", "value": 81.38, "unit": "%"},
      {"measurement": "efficacy", "setting": "C. tropicalis ATCC 750 [1]; CHG 0.1% w/w", "value": 99.997, "unit": "%"},
      {"measurement": "Log10 Reduction Compared to Control", "setting": "S. aureus ATCC 6538; [4]", "value": ">4.40"},
      {"measurement": "Percent Reduction Compared to Control", "setting": "S. aureus ATCC 6538; [4]", "value": ">99.996", "unit": "%"},
      {"measurement": "Average CFU/carrier", "setting": "S. aureus ATCC 6538; [4]", "value": "<5.00E+00^1 CFU/carrier"},
      {"measurement": "Log10 Reduction Compared to Control", "setting": "S. aureus ATCC 6538; [5]", "value": ">4.57"},
      {"measurement": "Percent Reduction Compared to Control", "setting": "S. aureus ATCC 6538; [5]", "value": ">99.997", "unit": "%"},
      {"measurement": "Average CFU/carrier", "setting": "S. aureus ATCC 6538; [5]", "value": "<5.00E+00^1 CFU/carrier"},
      {"measurement": "Log10 Reduction Compared to Control", "setting": "S. aureus ATCC 6538; [6]", "value": ">4.58"},
      {"measurement": "Percent Reduction Compared to Control", "setting": "S. aureus ATCC 6538; [6]", "value": ">99.997", "unit": "%"},
      {"measurement": "Average CFU/carrier", "setting": "S. aureus ATCC 6538; [6]", "value": "<5.00E+00^1 CFU/carrier"},
      {"measurement": "reduction of the concentration of microorganisms", "setting": "S. aureus ATCC 6538; Staphylococcus aureus, CHG 0.05% w/w, after 30 min contact time", "value": "more than 99.99%"},
      {"measurement": "reduction of the concentration of the microorganisms", "setting": "S. aureus ATCC 6538; Staphylococcus aureus, CHG 0.1% w/w, after 60 min and 24 hour contact time", "value": "more than 99.99%"},
      {"measurement": "Log10 Reduction Compared to Control", "setting": "P. aeruginosa ATCC 9027; [4]", "value": ">4.43"},
      {"measurement": "Percent Reduction Compared to Control", "setting": "P. aeruginosa ATCC 9027; [4]", "value": ">99.996", "unit": "%"},
      {"measurement": "Average CFU/carrier", "setting": "P. aeruginosa ATCC 9027; [4]", "value": "<5.00E+00^1 CFU/carrier"},
      {"measurement": "Log10 Reduction Compared to Control", "setting": "P. aeruginosa ATCC 9027; [5]", "value": ">4.53"},
      {"measurement": "Percent Reduction Compared to Control", "setting": "P. aeruginosa ATCC 9027; [5]", "value": ">99.996", "unit": "%"},
      {"measurement": "Average CFU/carrier", "setting": "P. aeruginosa ATCC 9027; [5]", "value": "<5.00E+00^1 CFU/carrier"},
      {"measurement": "Log10 Reduction Compared to Control", "setting": "P. aeruginosa ATCC 9027; [6]", "value": ">4.70"},
      {"measurement": "Percent Reduction Compared to Control", "setting": "P. aeruginosa ATCC 9027; [6]", "value": ">99.998", "unit": "%"},
      {"measurement": "Average CFU/carrier", "setting": "P. aeruginosa ATCC 9027; [6]", "value": "<5.00E+00^1 CFU/carrier"},
      {"measurement": "reduction of the concentration of microorganisms", "setting": "P. aeruginosa ATCC 9027; Pseudomonas aeruginosa, CHG 0.05% w/w, after 30 min contact time", "value": "more than 99.99%"},
      {"measurement": "reduction of the concentration of the microorganisms", "setting": "P. aeruginosa ATCC 9027; Pseudomonas aeruginosa, CHG 0.1% w/w, after 60 min and 24 hour contact time", "value": "more than 99.99%"},
      {"measurement": "Log10 Reduction Compared to Control", "setting": "C. tropicalis ATCC 750 [2]; [7]", "value": ">4.46"},
      {"measurement": "Percent Reduction Compared to Control", "setting": "C. tropicalis ATCC 750 [2]; [7]", "value": ">99.997", "unit": "%"},
      {"measurement": "Average CFU/carrier", "setting": "C. tropicalis ATCC 750 [2]; C. tropicalis ATCC 750, CHG Conc 0.05 % w/w, contact time 30 min, study NG17964, limit of detection", "value": "<5.00E+00^1 CFU/carrier"},
      {"measurement": "efficacy", "setting": "C. tropicalis ATCC 750 [2]; tested against Candida albicans and Candida tropicalis, CHG 0.05% w/w", "value": 99.997, "unit": "%"},
      {"measurement": "lowest dose showing strong efficacy against both bacteria and fungus", "setting": "bacteria and fungus", "value": 0.05, "unit": "% w/w"},
      {"measurement": "effect in Zone of Inhibition (ZOI) testing", "setting": "[3]", "value": "showed inhibitory effects"},
      {"measurement": "Average CFU/carrier", "setting": "C. albicans ATCC 10231; CHG Conc 0.005 % w/w", "value": "1.00E+05", "unit": "CFU/carrier"},
      {"measurement": "Log10 Reduction Compared to Control", "setting": "C. albicans ATCC 10231; CHG Conc 0.005 % w/w", "value": 0.25},
      {"measurement": "Percent Reduction Compared to Control", "setting": "C. albicans ATCC 10231; CHG Conc 0.005 % w/w", "value": 43.52, "unit": "%"},
      {"measurement": "Average CFU/carrier", "setting": "C. albicans ATCC 10231; CHG Conc 0.05 % w/w", "value": "2.48E+02", "unit": "CFU/carrier"},
      {"measurement": "Log10 Reduction Compared to Control", "setting": "C. albicans ATCC 10231; CHG Conc 0.05 % w/w", "value": 2.86},
      {"measurement": "Percent Reduction Compared to Control", "setting": "C. albicans ATCC 10231; CHG Conc 0.05 % w/w", "value": 99.86, "unit": "%"},
      {"measurement": "Average CFU/carrier", "setting": "C. albicans ATCC 10231; CHG Conc 0.1 % w/w", "value": "7.50E+00", "unit": "CFU/carrier"},
      {"measurement": "Log10 Reduction Compared to Control", "setting": "C. albicans ATCC 10231; CHG Conc 0.1 % w/w", "value": 4.37},
      {"measurement": "Percent Reduction Compared to Control", "setting": "C. albicans ATCC 10231; CHG Conc 0.1 % w/w", "value": 99.996, "unit": "%"}
    ]}
  ]
}
